From publication PMC6332220, “Synthesis, Characterization and Biological Evaluation of Some Quinoxaline Derivatives: A Promising and Potent New Class of Antitumor and Antimicrobial Agents” (Molecules, 2015)
Values after ≈ are worked out from the molar mass of the structure shown.

How the values were obtained:
[1] = tested on: Escherichia coli; assay: Disk diffusion, Escherichia coli; type: cell-based; details: Gram negative, 8.0 mm disks, 10 μL
Description: (§1) The disk diffusion method was used for determination of the antimicrobial activity using ampicillin, gentamicin and amphotericin B as reference drugs. The results were recorded for each compounds as the average diameter as inhibition zones (IZ) of bacterial or fungal growth around the discs in mm as shown in Table 2.
(§2) Antimicrobial activities were carried out against highly pathogenic strains; three strains of Gram positive bacteria (Bacillus subtilis, Staphylococcus aureus and Streptococcus faecalis), four strains of Gram negative bacteria (Escherichia coli, Neisseria gonorrhoeae, Pseudomonas aeruginosa and Salmonella typhimurium) and three fungi strains (Aspergillus flavus, Aspergillus fumigatus and Candida albicans) isolated from primary agar plates. Antimicrobial activity of the tested samples was determined using a modified Kriby-Bauer disk diffusion method. Briefly, 100 µL of the test bacteria/fungi were grown in 10 mL of fresh media until they reached a count approximately 10^8 cells/mL for bacteria or 10^5 cells/mL for fungi. 100 µL of microbial suspension was spread onto agar plates corresponding to the broth in which they were maintained. The inoculated plates of bacterial strains were incubated at 35–37 °C for 24–48 h, while the inoculated plates of fungal strains such as A. flavus and A. fumigatus were incubated at 25 °C for 48 h and yeast as C. albicans was incubated at 30 °C for 24–48 h.
(§3) The agar disk diffusion (qualitative) method was used in this investigation for determination of the preliminary antibacterial and antifungal activities. The agar used was Mueller-Hinton agar plates that are rigorously tested for composition and pH. Further the depth of the agar in the plate is a factor to be considered in the disk diffusion method.
(§4) Reference drugs: ampicillin was used as a standard antibacterial drug for Gram positive bacteria, gentamicin as a standard antibacterial drug for Gram negative bacteria and amphotericin B as antifungal standard drug.
(§5) Bacterial and fungal strains were spread onto the surface of the agar plates using sterile cotton swabs. For evaluation of antibacterial activities, blank paper disks (Schleicher & Schuell, Alicante, Spain) with a diameter of 8.0 mm were saturated with 10 μL of tested concentration of the stock solutions. Disks were dried and then placed onto inoculated agar plates. The plates of bacterial strains were reincubated at 35–37 °C for 24–48 h, while the plates of fungal strains such as A. flavus and A. fumigatus were reincubated at 25 °C for 48 h and yeast as C. albicans was reincubated at 30 °C for 24–48 h as mentioned above. […] For an accurate analysis, tests were run in triplicate for each strain to avoid any error as described in Table 2.

[2] = tested on: Staphylococcus aureus; assay: Disk diffusion, Staphylococcus aureus; type: cell-based; details: Gram positive, 8.0 mm disks, 10 μL
Description: as §1, §2, §3, §4, §5

[3] = tested on: Candida albicans; assay: Disk diffusion, Candida albicans; type: cell-based; details: Fungi, 8.0 mm disks, 10 μL
Description: as §1, §2, §3, §4, §5
(§6) Disk diffusion method for filamentous fungi testing by using approved standard method (M02-A11) developed by the CLSI for evaluating the susceptibilities of filamentous fungi to antifungal agents. Disk diffusion method for yeasts developed by using approved standard method (M44-A2) by the CLSI [44]. Agar-based methods such as disk diffusion can be good alternatives because they are simpler and faster than broth-based methods.

[4] = tested on: Bacillus subtilis; assay: Disk diffusion, Bacillus subtilis; type: cell-based; details: Gram positive, 8.0 mm disks, 10 μL
Description: as §1, §2, §3, §4, §5

[5] = tested on: Pseudomonas aeruginosa; assay: MIC by broth dilution, Pseudomonas aeruginosa; type: cell-based; details: Pseudomonas aeruginosa, Gram negative, 0.98-125 µg/mL, read-out: Minimum Inhibitory Concentration (MIC) (µg/mL) Pseudomonas aeruginosa
Description: In this study, MIC (quantitative method) was used for evaluation of the antimicrobial activity of tested compounds. Screening was evaluated in vitro using the Broth dilution method according to CLSI [45]. All the bacteria were incubated and activated at 30 °C for 24 h inoculation into nutrient broth and the fungi were incubated in malt extract broth for 48 h. The compounds were dissolved in DMSO and then diluted using […] Mueller-Hinton broth. […] In each case triplicate tests were performed and the average was taken as the final reading. The tubes were then inoculated with the test organisms, grown in their suitable broth at 37 °C for 24 h for tested microorganisms (1 × 10^8 CFU/mL for bacteria and 1 × 10^6 CFU/mL of fungi), each 5 mL received 0.1 mL of the above inoculum and incubated at 37 °C for 24 h.

[6] = tested on: Salmonella typhimurium; assay: Disk diffusion, Salmonella typhimurium; type: cell-based; details: Gram negative, 8.0 mm disks, 10 μL
Description: as §1, §2, §3, §4, §5

[7] = tested on: MCF-7 (breast adenocarcinoma); assay: In vitro cytotoxicity, SRB cell growth assay, MCF-7; details: Homo sapiens, MCF7, 48 h, read-out: IC50 (μg/mL) MCF-7
Description: The in vitro cytotoxic activity of the newly synthesized compounds against human breast cell line (MCF7), non-small cell lung cancer NCIH460, CNS cancer SF-268 and WI 38 (normal fibroblast cells) were evaluated using doxorubicin as the reference drug according to the method reported by Skehan et al..
The newly synthesized compounds were evaluated in vitro against three human cancer cell lines; which are MCF-7 (breast adenocarcinoma), NCI-H460 (non-small cell lung cancer) and SF-268 (CNS cancer), and WI 38 (normal fibroblast cells) were used in this study. MCF-7 was obtained from the European Collection of Cell Cultures (ECACC, Salisbury, UK) but NCI-H460, SF-268 and WI 38 were kindly provided by the National Cancer Institute (NCI, Cairo, Egypt). They grow as monolayer and routinely maintained RPMI-1640 medium supplemented with 5% heat inactivated fetal bovine serum (FBS), 2 mM glutamine and antibiotics (penicillin 100 U/mL, streptomycin 100 µg/mL), at 37 °C in a humidified atmosphere containing 5% CO2. Exponentially growing cells were obtained by plating 1.5 × 10^5 cells/mL for MCF-7 and SF-268, and 0.75 × 10^4 cells/mL for NCI-H460 followed by 24 h of incubation. The effect of the vehicle solvent (DMSO) on the growth of these cell lines was evaluated in all experiments by exposing untreated control cells to the maximum concentration (0.5%) of DMSO used in each assay.
The effect of compounds on the in vitro growth of human tumor cell lines were evaluated according to the procedure adopted by the National Cancer Institute ([…]) in the “In vitro Anticancer Drug Discovery Screen” that uses the protein-binding dye sulforhodamine B (SRB) to assess cell growth. In the assay protocol, all cells were incubated at 37 °C under humidified atmosphere containing 5% CO2. Briefly, exponentially cells growing in 96-well plates were then exposed for 48 h to five serial concentrations of each compound, starting from a maximum concentration of 150 μg/mL. Following this exposure period adherent cells were fixed, washed and stained. The bound stain was solubilized and the absorbance was measured at 492 nm in a plate reader (Bio-Tek Instruments Inc., Power wave XS, Winston, NC, USA). For each test compound and cell line, a dose response curve was obtained and the inhibitory concentration of 50% (IC50), corresponding to the concentration of the compounds that inhibited 50% of the net cell growth was calculated as described elsewhere. Doxorubicin was used as a positive control and tested in the same manner.

[8] = tested on: Aspergillus fumigatus; assay: Disk diffusion, Aspergillus fumigatus; type: cell-based; details: Fungi, 8.0 mm disks, 10 μL
Description: as §1, §2, §3, §4, §5, §6

[9] = tested on: Streptococcus faecalis; assay: Disk diffusion, Streptococcus faecalis; type: cell-based; details: Gram positive, 8.0 mm disks, 10 μL
Description: as §1, §2, §3, §4, §5

[10] = tested on: Pseudomonas aeruginosa; assay: Disk diffusion, Pseudomonas aeruginosa; type: cell-based; details: Gram negative, 8.0 mm disks, 10 μL
Description: as §1, §2, §3, §4, §5

MIC [5] [µg/mL] | melting point [°C] | Compound | Inhibition Zone Diameter (IZ) (mm) Escherichia coli [1] [mm] | Inhibition Zone Diameter (IZ) (mm) Staphylococcus aureus [2] [mm] | Inhibition Zone Diameter (IZ) (mm) Candida albicans [3] | Inhibition Zone Diameter (IZ) (mm) Bacillus subtilis [4] [mm] | Inhibition Zone Diameter (IZ) (mm) Salmonella typhimurium [6] [mm] | IC50 [7] [µg/mL] | Inhibition Zone Diameter (IZ) (mm) Aspergillus fumigatus [8] | Inhibition Zone Diameter (IZ) (mm) Streptococcus faecalis [9] [mm] | Inhibition Zone Diameter (IZ) (mm) Pseudomonas aeruginosa [10] [mm]
125 (≈ 465 µM) |  | NNc1nc2ccc(Br)cc2nc1NN [Compound 9, 6-Bromo-2,3-dihydrazinylquinoxaline] | 29 | 27 | 11 mm | 28 | 17 | 37.1 ± 7.34 (≈ 138 µM) | 5 mm | 27 | 31
125 (≈ 310 µM) | 232 to 233 | NC1=NN(c2nc3ccc(Br)cc3nc2N2N=C(N)CC2=O)C(=O)C1 [Compound 16, 6-Bromo-2,3-bis(3-amino-1H-pyrazol-5(4H)-one)quinoxaline] | 10 | 12 | R (R (IZ = 0 mm)) | 10 | 10 | 12.8 ± 1.46 (≈ 31.8 µM) | R (R (IZ = 0 mm)) | 11 | 11
> 125 | 199 to 201 | Clc1nc2ccc(Br)cc2n2nnnc12 [Compound 4, 8-Bromo-4-chlorotetrazolo[1,5-a]quinoxaline] | 17 | 26 | 20 mm | 20 | 17 | 0.02 ± 0.006 (≈ 0.0703 µM) | 10 mm | 18 | 21

Compound | MIC [5] [µg/mL] | melting point [°C] | Inhibition Zone Diameter (IZ) (mm) Escherichia coli [1] [mm] | Inhibition Zone Diameter (IZ) (mm) Staphylococcus aureus [2] [mm] | Inhibition Zone Diameter (IZ) (mm) Candida albicans [3] | Inhibition Zone Diameter (IZ) (mm) Bacillus subtilis [4] [mm] | Inhibition Zone Diameter (IZ) (mm) Salmonella typhimurium [6] [mm] | IC50 [7] [µg/mL] | Inhibition Zone Diameter (IZ) (mm) Aspergillus fumigatus [8] | Inhibition Zone Diameter (IZ) (mm) Streptococcus faecalis [9] [mm] | Inhibition Zone Diameter (IZ) (mm) Pseudomonas aeruginosa [10] [mm]
NNc1nc2cc(Br)ccc2nc1Cl [Compound 3, 6-Bromo-2-chloro-3-hydrazinylquinoxaline] | 125 (≈ 457 µM) | 201 to 203 | 13 | 14 | R (R (IZ = 0 mm)) | 15 | 13 | 36 ± 7.33 (≈ 132 µM) | R (R (IZ = 0 mm)) | 14 | 14
